# Data from US20020107281A1, “Phototherapeutic and chemotherapeutic immunotherapy against tumors” (Photogen, Inc., priority 2000, published 2002).
# Key:
# [1] = system: recurrent malignant fibrous histocytoma; test: Rose Bengal injection plus 60Co irradiation of a dog's tumor (Example 1); assay type: in vivo
# Description: This anti-tumoral effect for the prototypical halogenated xanthene, Rose Bengal, is illustrated by the following example which is not intended to limit the present invention. An adult, female dog with a recurrent malignant fibrous histocytoma (an undifferentiated tumor that could be considered to be a poorly differentiated mesenchymal tumor), approximately 20 cc in volume, was treated by injection of approximately 7 cc of a 10% solution of Rose Bengal at several locations throughout the tumor volume. After a period of five days, an irradiation regimen consisting of 5 daily fractions (2 Gy each) of radiation from a ^60Co source was begun in order to effect phototherapy of the tumor. […] Such a response at 5 days is consistent with a chemotherapeutic modality of the injected Rose Bengal, while continued decrease in tumor mass at 19 days is consistent with a phototherapeutic modality related to tumor irradiation. […] This continued tumor regression is consistent with ongoing immune assault upon remaining tumor tissue.
# [2] = system: renal adenocarcinoma (RAG) tumors; test: Rose Bengal PDT of RAG tumors in nude mice, then tumor cell rechallenge (Example 4); assay type: in vivo, BALB/C athymic nude mice
# Excerpt: (§1) The immunologic basis for phototherapy-induced immunity is further illustrated by the following example which is not intended to limit the present invention. As an additional control, immune incompetent mice were implanted with subcutaneous tumors, treated using phototherapy, then challenged with a second dose of tumor cells. Since they are immune incompetent, the inventors believed that such mice would respond to phototherapy but fail to develop immunity to tumor cells. […] The rate of tumor development from such implantation was approximately 50% (14/28 mice developed tumors within five weeks of injection). The tumors were treated using intra-lesionally-injected Rose Bengal and green light photoactivation (1% Rose Bengal administered intra-lesionally at approximately 1 cc/cm^3 tumor volume, then illuminated 24 hours post administration using 532 nm laser light at 100 J/cm^2, 200 mW/cm^2).
# [3] = system: Murine hepatoma tumor cells (ATCC CRL-1830 Hepa 1-6); test: Rose Bengal PDT of left-flank tumor in mice with bilateral hepatoma tumors (Example 5); assay type: in vivo, C57BL/6 mice
# Description: The immunologic basis for phototherapy-induced immunity is further illustrated by the following example which is not intended to limit the present invention. Murine hepatoma tumor cells (10^6 cells, ATCC CRL-1830 Hepa 1-6) were injected subcutaneously into the left flank of immunocompetent mice (C57BL/6). Concurrent with this implantation, a smaller implantation was performed by injecting 5×10^5 tumor cells into the right flank of these mice. Tumors presented in both flanks within approximately 5-6 days of implantation. One group of mice were otherwise untreated and served as controls. […] A second group received illumination of the left-flank tumor with green light (532 nm laser light at 100 J/cm^2, 200 mW/cm^2). […] A third group received intra-lesional injection of the left-flank tumor with 50 μL of a 10% Rose Bengal solution (the right-flank tumor was not treated); the injected tumor was then illuminated 24 hours post drug administration using 532 nm laser light.
# [4] = system: multiple superficial mast cell tumors; test: Intra-lesional Rose Bengal chemotherapy in a dog with mast cell tumors (Example 7); assay type: in vivo
# Description: This chemotherapeutic and immunologic anti-tumoral effect for the prototypical halogenated xanthene, Rose Bengal, is illustrated by the following example which is not intended to limit the present invention. An adult, female dog with multiple superficial mast cell tumors was treated by injection of several cc of a 10% solution of Rose Bengal into each of several tumors (approximately one third of the total tumors were treated in this manner). […] Such a response in the treated tumors is consistent with the expected chemotherapeutic modality of the injected Rose Bengal, while the noted decrease in non-treated tumors represents an ongoing immune assault upon remaining remote tumor tissues.
# subcutaneous RAG tumors [5] = test: Intra-lesional Rose Bengal chemotherapy of RAG tumors, immune competent mice (Example 8); assay type: in vivo, C57BL/6 mice; settings: 10% solution intra-lesionally
# Excerpt: as §1
# (§2) The chemotherapeutic and immunologic anti-tumoral effect for the prototypical halogenated xanthene, Rose Bengal, is further illustrated by the following example which is not intended to limit the present invention. Immune competent mice (C57BL/6 mice) and immune incompetent mice (BALB/C athymic nude mice) were implanted with subcutaneous RAG tumors, as previously described in Example 4. […]
# subcutaneous RAG tumors [6] = test: Intra-lesional Rose Bengal chemotherapy of RAG tumors, immune incompetent mice (Example 8); assay type: in vivo, BALB/C athymic nude mice; settings: 10% solution intra-lesionally
# Excerpt: as §1, §2
structure (smiles),measurement,setting,value
O=C([O-])c1c(Cl)c(Cl)c(Cl)c(Cl)c1-c1c2cc(I)c(=O)c(I)c-2oc2c(I)c([O-])c(I)cc12.[Na+].[Na+] [Rose Bengal],tumor mass at follow-up,[1]; 12 weeks post injection,significant further reduction in tumor mass
same,tumor size after irradiation,"[1]; 19 days post injection, after 5 daily fractions (2 Gy each) 60Co",further measurable decrease in tumor size
same,side-effects in healthy tissue surrounding the tumor,[1]; all follow-up intervals,no significant side-effects in healthy tissue surrounding the tumor
same,tumor response before irradiation,"[1]; approximately 7 cc of 10% solution injected into tumor, five days post injection, immediately prior to irradiation",measurable decrease in tumor density along with significant edema and apparent necrosis of large sections of the tumor
same,final histologic examination for viable tumor tissue,[1]; approximately 12 months post-treatment,no evidence of viable tumor tissue was observed
same,effect of phototherapy on treated lesions,"[2]; 1% Rose Bengal intra-lesionally, approximately 1 cc/cm^3 tumor volume, 532 nm laser light 100 J/cm^2 24 hours post administration",selective acute necrosis of treated lesions
same,tumor development after challenge with second injection of RAG tumor cells,"[2]; seven complete responders, 10^4 tumor cells to opposite flank, five weeks following challenge (3/7 mice)",approximately 50%
same,eradication of the treated left-flank tumor,"[3]; 50 μL of 10% Rose Bengal solution intra-lesionally, 532 nm laser light 24 hours post administration",5/5
same,spontaneous rejection of the untreated right-flank tumor,"[3]; left-flank tumor treated with 10% Rose Bengal and 532 nm light, right-flank tumor not treated",5/5
same,side-effects in healthy tissue surrounding the treated tumors,[4]; all follow-up intervals,no significant side-effects in healthy tissue surrounding the treated tumors
same,systemic side effects,[4]; all follow-up intervals,nor any evidence of significant systemic side effects
same,"size of mast cell tumors, both treated and non-treated","[4]; several cc of 10% solution into approximately one third of the tumors, over subsequent three month period, no light",marked and progressive reduction in size
same,immediate effect of chemotherapeutic treatment on tumor,"subcutaneous RAG tumors [5]; approximately 1 cc/cm^3 tumor volume, immune competent mice",immediate tumor necrosis
same,cure rate,"subcutaneous RAG tumors [5]; immune competent mice (6/6 mice treated), upon follow-up",100%
same,immediate effect of chemotherapeutic treatment on tumor,"subcutaneous RAG tumors [6]; approximately 1 cc/cm^3 tumor volume, immune incompetent mice",immediate tumor necrosis
same,cure rate,"subcutaneous RAG tumors [6]; immune incompetent mice (0/4 mice treated), upon follow-up",0%
